According to patent publication US6846907B1, “Osteoporosis treatment” (Hamilton Civic Hospitals Research Centre, priority 1999, dated 2005):
“Also recorded” adds a separate entry of the source. Ends that are not written are not given here.

B1: H289→Y289 mutant solubilized IL-11 receptor: gp130 binding region mutant (H289 to Y) recombinant soluble human IL-11 receptor of Example 3 (protein)
chain: SPCPQAWGPPGVQYGQPGRSVKLCCPGVTAGDPVSWFRDGEPKLLQGPDSGLGHELVLAQADSTDEGTYICQTLDGALGGTVTLQLGYPPARPVVSCQAADYENFSCTWSPSQISGLPTRYLTSYRKKTVLGADSQRRSPSTGPWPCPQDPLGAARCVVHGAEFWSQYRINVTEVNPLGASTRLLDVSLQSILRPDPPQGLRVESVPGYPRRLRASWTYPASWPCQPHFLLKFRLQYRPAQHPAWSTVEPAGLEEVITDAVAGLPYAVRVSARDFLDAGTWSTWSPEAWGTPSTGTIPKEIPAWGQLHTQPEVEPQVDSPAPPRPSLQPHPRLLDHRDSVEQVAVLA
modifications: left off: small tags and cut ends
B2: IL-11: cytokine interleukin-11 (protein, UniProt P20809 22-199, looked up)
Interleukin-11: PGPPPGPPRVSPDPRAELDSTVLLTRSLLADTRQLAAQLRDKFPADGDHNLDSLPTLAMSAGALGALQLPGVLTRLRADLLSYLRHVQWLRRAGGSSLKTLEPELGTLQARLDRLLRRLQLLMSRLALPQPPPDPPAPPLAPPSSAWGGIRAAHAILGGLHLTLDWAVRGLLLLKTRL

What was measured:
[1] = molecular target: Interleukin-11; assay: cell-based or functional assay
[2] = tested on: IL-11/IL-11R interaction; assay: Inhibition of the productive interaction of IL-11 with IL-11R by IL-11 binding peptides
[3] = tested on: cocultures of murine bone marrow and calvaria cells; assay: TRAP assay: IL-11 induced osteoclast formation in cocultures of murine bone marrow and calvaria cells; assay type: cell-based; details: for IL-11 induced osteoclast formation (TRAP+ multinucleated cells): 20 ng/ml IL-11, 10, 100 or 1000 ng/ml test substance, 9 days, FIGS. 7A, 7B, 8, 12
Source text: Particular IL-11 antagonists useful in the treatment of IL-11 related bone density disorders may be identified using the TRAP assay and the bone nodule formation assay, discussed herein. The TRAP assay is known in the art and involves co-culturing murine calvarla (osteoblasts) and bone marrow cells in vitro and then quantifying osteoclast formation by counting the number of tartrate-resistant acid phosphatase positive (TRAP+) multinucleated cells. […] These potential IL-11 antagonists may be screened to determine if they are IL-11 antagonists by examining their activity in the TRAP assay and the bone nodule formation assay.
Post menopausal osteoporosis is characterized by a general reduction in bone mass, resulting from an imbalance between osteoblast-mediated bone formation and bone resorption by the osteoclast. While the osteoblast is responsible for the formation of new bone or osteoid, it also appears to control the activation and/or number of osteoclasts by releasing cytokines such as IL-6 or IL-11. This process can be examined using a “TRAP assay” which involves co-culturing murine calvaria (osteoblasts) and bone marrow cells in vitro and then quantifying osteoclast formation by counting the number of tartrate-resistant acid phosphatase positive (TRAP+) multinucleated cells. Ovariectomized (OVX) rats or mice provide a satisfactory animal model for postmenopausal women in studies of osteoporosis.
The effect of IL-11 on osteoclast development in cocultures of murine bone marrow and calvaria cells was examined using standard techniques. Briefly, bone marrow cultures were established by removing femurs from mice, dissecting away soft tissue, and removing the distal and proximal ends of the femur. The marrow was then flushed with 5 ml α MEM and 1.0% penicilin-streptomycin using a 25 gauge needle. The bone marrow cells were then suspended to a concentration of 5,000,000 cells per ml in α MEM containing 15% fetal calf serum (charcoal treated) to remove cells adherent to plastic. The non-adherent cells were then co cultured for an additional 9 days with murine calvaria cells prior to being fixed and stained for TRAPase activity (stains were obtained from Sigma Chemical Co., St. Louis, Mo.). TRAP+MNC's have the ability to form resorption pits in smooth cortical bone slices and are therefore considered to be of osteoclast origin.
The effect of IL-11 on osteoclast development in cocultures of murine bone marrow and calvaria cells was examined by maintaining these cultures in the presence of various specific concentrations of IL-11 for 9 days. After 9 days of culture, the cells were stained for TRAPase activity and the number of multinucleated TRAP+cells were determined. The results of this experiment are depicted in Table I. Data are expressed as mean +/−SEM. […]

[4] = tested on: murine calvaria cell culture; assay: Bone nodule formation assay in the presence of exogenous IL-11 and IL-11 antagonists; assay type: cell-based; details: 20 ng/ml exogenous IL-11; for reversal of the inhibitory effect of IL-11 on bone nodule formation: 21 days, FIGS. 9, 10
Description: Bone nodule formation was measured using standard techniques. Briefly, calvaria cell cultures were established as follows: Calvaria cells were obtained from 2 day old fetal mouse calavariae by collagenase digestion. The cells were then cultured for 21 days in the presence of 0.5 mM ascorbic acid and 10 mM β-glycerophosphate. Where indicated in the experimental descriptions below, IL-11 and the mutant IL-11 receptor of experiment 4 were added to the culture at day 0 and every 3-4 days thereafter until the removal of the medium for analysis. Bone nodule formation was quantified by counting alizarin red stain nodules under a light microscope.
The effect of a gp130 binding region mutant soluble IL-11 receptor of type described in Experiment 4 and produced by the process of Experiment 3 on bone nodule formation in the presence of 20 ng/ml of exogenous IL-11 was assessed, and the results are depicted in FIG. 9. […] Thus, IL-11 antagonists such as mutant IL-11Rs can enhance bone nodule formation.
It was desired to determine if bone nodule formation could be modulated in a manner similar to that reported in Example 6 using an IL-11 antagonist peptide such as the one used in Example 5. To achieve this, the procedure of Example 6 was repeated, with the substitution of peptide 1 for the solubilized mutant IL-11 receptor. The results of this experiment are depicted in FIG. 10.

[5] = tested on: murine calvaria cells (primary osteoblasts); assay: Bone nodule formation assay, effect of IL-11; assay type: cell-based; details: various concentrations of IL-11; 250 μM ascorbic acid, 10 mM β-glycerol phosphate; FIG. 5
Description: The effect of IL-11 on bone formation was examined using the bone nodule formation assay. Murine calvaria cells (primary osteoblasts) were cultured in the presence of 250 μM ascorbic add and 10 mM β-glycerol phosphate, and in the presence of various amounts of interleukin-11. After culturing, the culture media were plated out and the number of bone nodules per plate was counted. The results are shown on the accompanying FIG. 5, where number of bone nodules per plate is plotted as the vertical axis, with the different concentrations of interleukin on the horizontal axis, not to scale. Each bar represents the result on experiments containing a different concentration of interleukin-11, as noted on FIG. 5.

| Molecule | productive interaction of IL-11 with IL-11R [2] | IL-11 induced osteoclast formation (TRAP+ multinucleated cells) [3] | reversal of the inhibitory effect of IL-11 on bone nodule formation [4] | also measured |
| --- | --- | --- | --- | --- |
| H289→Y289 mutant solubilized IL-11 receptor (from UniProt Q14626 24-370) |  |  |  | concentration allowing enhanced bone nodule formation in the presence of 20 ng/ml exogenous IL-11 [1]: 10 ng/mL |
| RRLRASW [SEQ ID NO. 5] | capable of inhibiting the productive interaction of IL-11 and IL-11R |  |  |  |
| RRLRASWTYPASWPCQPHFL [peptide 1] | binds IL-11 and prevents its productive interaction with IL-11R | inhibits IL-11 induced osteoclast formation | able to reduce the inhibitory effects | bone nodule formation relative to control samples ([4]; 50 ng/ml peptide, FIG. 10): allowed bone nodule formation in excess of that seen in the control samples |
| Ser Ile Leu Arg Pro Asp Pro Pro Gin Gly Leu Arg Val Glu Ser Val Pro Gly Tyr Pro (SILRPDPPQGLRVESVPGYP; listed as Homo sapiens) [SEQ. ID. NO. 6] | has been found to inhibit the productive interaction between IL-11 and IL-11R |  |  |  |
| Thr Tyr Pro Ala Ser Trp Pro Cys Gin Pro His Phe Leu Leu Lys Phe Arg Leu Gln Tyr (TYPASWPCQPHFLLKFRLQY; listed as Homo sapiens) [peptide 2] |  | does not | unable to reduce the inhibition of nodule formation by IL-11 |  |
| B1 |  | capable of inhibiting IL-11-induced osteoclast formation | can reverse the effect of exogenous IL-11 | bone nodule formation relative to the level in the absence of exogenous IL-11 ([4]; 10 ng/ml mutant receptor, FIG. 9): enhanced bone nodule formation |
| B2 |  |  |  | osteoclast formation in vitro, effect of IL-11 ([3]; cocultures of murine calvaria and bone marrow cells): potent stimulator of osteoclast formation; number of bone nodules per plate [5]: number of bone nodules per plate decreased; also recorded: inhibits bone formation |
